Data taken from PMC9610943, “Truncated Pleurocidin Derivative with High Pepsin Hydrolysis Resistance to Combat Multidrug-Resistant Pathogens” (Pharmaceutics, 2022).
Where no end group is shown, it is not given here.

Assays:
MRSA T144 [1] = assay type: cell-based, Staphylococcus aureus
Description: (§1) The MICs of all drugs were determined by micro-broth dilution method according to CLSI 2018 guidelines. Briefly, a single colony of the bacterial strain was transferred to 1 mL of Mueller Hilton broth (MHB) and overnight at 37 °C and then 10 μL were cultured in a new 1 mL medium for 4 to 6 h, and then the bacterial culture at the logarithmic phase was diluted to 1 × 10^6 CFUs/mL. The assay was performed by adding 100 μL of each peptide solution at various concentrations (0.25 to 128 μg/mL) and 100 μL of diluted bacterial culture to different wells of a 96-well microtiter plate (Corning, NY, USA). After incubation at 37 °C for 16 to 18 h and then read its MIC value. MIC value is defined as the lowest drug concentration without visible bacteria.
(§2) Then, the antibacterial activity of the peptides affected by different temperatures and pH were determined according to the determination steps of MICs test.
(§3) In MHB medium, Na^+, K^+, Mg^2+ and Ca^2+ with the final concentrations of 10 mM, fetal bovine serum, plasma or DMEM medium (Hyclone, Logan, UT, USA) with the final concentrations of 10% was added, and then MIC values were measured to evaluate the effects of different cations, serum and plasma on the antibacterial activity of peptides.
(§4) The peptide was incubated with protease (pepsin, trypsin and papain) (Solarbio, Beijing, China) with a final concentration of 1 mg/mL at 37 °C for 1 h, then the mixture of peptide and protease was heated at 100 °C for 30 min, then centrifuged at 13,000× g for 30 min, and the supernatant was taken for MIC determination.

[2] = test system: P. cibarius HNCF44W (blaNDM-1+ tet(X6)); experiment: organism not typed; assay type: cell-based
Description: (§5) S. aureus ATCC 29213, E. coli ATCC 25922, S. enteritidis ATCC 13076 and A. baumannii ATCC 19609 were obtained from the American Type Culture Collection (ATCC). The remaining strains used in the experiment were all preserved strains in our laboratory. All strains were cultured in nutrient broth overnight to the logarithmic phase at 37 °C prior to each experiment.
as §1

E. coli B2 = assay type: cell-based
Description: as §1, §2, §3, §4

MRSA 1530 = experiment: microbe, parasite or virus in culture; assay type: cell-based, Staphylococcus aureus; settings: 1530
Description: as §5, §1

MRSA T144 [3] = experiment: microbe, parasite or virus in culture; assay type: cell-based, Staphylococcus aureus; settings: T144
Description: as §5, §1

E. coli B3-1 (tet(X4)) = experiment: microbe, parasite or virus in culture; assay type: cell-based; settings: B3-1 (tet(X4))
Description: as §5, §1

[4] = test system: P. aeruginosa (VIM + tmexCD1-torJ1); experiment: microbe, parasite or virus in culture; assay type: cell-based; settings: VIM + tmexCD1-torJ1
Description: as §5, §1

[5] = test system: E. faecalis A4 (VRE, VanA); experiment: microbe, parasite or virus in culture; assay type: cell-based; settings: A4 (VRE, VanA)
Description: as §5, §1

E. coli C3 (blaNDM-1) = experiment: microbe, parasite or virus in culture; assay type: cell-based; settings: C3 (blaNDM-1)
Description: as §5, §1

E. coli G92 (mcr-1) = experiment: microbe, parasite or virus in culture; assay type: cell-based; settings: G92 (mcr-1)
Description: as §5, §1

S. aureus ATCC 29213 = experiment: microbe, parasite or virus in culture; assay type: cell-based; settings: ATCC 29213
Description: as §5, §1

E. coli ATCC 25922 = experiment: microbe, parasite or virus in culture; assay type: cell-based; settings: ATCC 25922
Description: as §5, §1

P. aeruginosa PA14 = experiment: microbe, parasite or virus in culture; assay type: cell-based; settings: PA14
Description: as §5, §1

E. coli G6 (blaNDM-5) = experiment: microbe, parasite or virus in culture; assay type: cell-based; settings: G6 (blaNDM-5)
Description: as §5, §1

[6] = test system: E. coli B2 (blaNDM-5 + mcr-1); experiment: microbe, parasite or virus in culture; assay type: cell-based; settings: B2 (blaNDM-5 + mcr-1)
Description: as §5, §1

[7] = test system: S. enteritidis ATCC 13076; experiment: microbe, parasite or virus in culture; assay type: cell-based; settings: ATCC 13076
Description: as §5, §1

S. aureus G16 (RIF^R) = experiment: microbe, parasite or virus in culture; assay type: cell-based; settings: S. aureus G16 (RIF^R); micro-broth dilution CLSI 2018, MHB, 37 °C, 16 to 18 h
Description: as §5, §1

[8] = test system: S. aureus 215 (cfr + LZD^R); experiment: microbe, parasite or virus in culture; assay type: cell-based; settings: S. aureus 215 (cfr + LZD^R); micro-broth dilution CLSI 2018, MHB, 37 °C, 16 to 18 h
Description: as §5, §1

A. baumannii ATCC 19609 = experiment: microbe, parasite or virus in culture; assay type: cell-based; settings: ATCC 19609
Description: as §5, §1

E. coli 1F28 (tet(X4)) = experiment: microbe, parasite or virus in culture; assay type: cell-based; settings: 1F28 (tet(X4))
Description: as §5, §1

E. coli CP131 (mcr-3) = experiment: microbe, parasite or virus in culture; assay type: cell-based; settings: CP131 (mcr-3)
Description: as §5, §1

GWKSFFKKFKHVWK [GK-3]
MIC after treatment at 121 °C (MRSA T144 [1]; T144): 8 µg/mL
MIC in DMEM (10%) (MRSA T144 [1]; T144): 4 µg/mL
MIC in Plasma (10%) (MRSA T144 [1]; T144): 4 µg/mL
MIC in Serum (10%) (MRSA T144 [1]; T144): 8 µg/mL
MIC in presence of Ca^2+ (MRSA T144 [1]; T144): >128 µg/mL
MIC in presence of K^+ (MRSA T144 [1]; T144): 4 µg/mL
MIC in presence of Mg^2+ (MRSA T144 [1]; T144): 8 µg/mL
MIC in presence of Na^+ (MRSA T144 [1]; T144): 2 µg/mL
MIC, Control (MRSA T144 [1]; T144): 8 µg/mL
MIC after Papain treatment (MRSA T144 [1]; T144, 1 h): >128 µg/mL
MIC after Pepsin treatment (MRSA T144 [1]; T144, 1 h): 64 µg/mL
MIC after Trypsin treatment (MRSA T144 [1]; T144, 1 h): >128 µg/mL
MIC after treatment at 40 °C (MRSA T144 [1]; T144, 1 h): 4 µg/mL
MIC after treatment at 60 °C (MRSA T144 [1]; T144, 1 h): 2 µg/mL
MIC after treatment at 80 °C (MRSA T144 [1]; T144, 1 h): 4 µg/mL
MIC after treatment at 100 °C (MRSA T144 [1]; T144, 1 h): 8 µg/mL
MIC after treatment at pH 2 (MRSA T144 [1]; T144, 1 h, pH 2): 4 µg/mL
MIC after treatment at pH 4 (MRSA T144 [1]; T144, 1 h, pH 4): 4 µg/mL
MIC after treatment at pH 6 (MRSA T144 [1]; T144, 1 h, pH 6): 4 µg/mL
MIC after treatment at pH 8 (MRSA T144 [1]; T144, 1 h, pH 8): 4 µg/mL
MIC after treatment at pH 10 (MRSA T144 [1]; T144, 1 h, pH 10): 4 µg/mL
MIC after treatment at pH 12 (MRSA T144 [1]; T144, 1 h, pH 12): 4 µg/mL
MIC [2]: 8 µg/mL
MIC after treatment at 121 °C (E. coli B2; B2): 4 µg/mL
MIC in DMEM (10%) (E. coli B2; B2): 4 µg/mL
MIC in Plasma (10%) (E. coli B2; B2): 0.5 µg/mL
MIC in Serum (10%) (E. coli B2; B2): 8 µg/mL
MIC in presence of Ca^2+ (E. coli B2; B2): >128 µg/mL
MIC in presence of K^+ (E. coli B2; B2): 2 µg/mL
MIC in presence of Mg^2+ (E. coli B2; B2): 32 µg/mL
MIC in presence of Na^+ (E. coli B2; B2): 2 µg/mL
MIC, Control (E. coli B2; B2): 4 µg/mL
MIC after Papain treatment (E. coli B2; B2, 1 h): >128 µg/mL
MIC after Pepsin treatment (E. coli B2; B2, 1 h): 64 µg/mL
MIC after Trypsin treatment (E. coli B2; B2, 1 h): >128 µg/mL
MIC after treatment at 40 °C (E. coli B2; B2, 1 h): 2 µg/mL
MIC after treatment at 60 °C (E. coli B2; B2, 1 h): 2 µg/mL
MIC after treatment at 80 °C (E. coli B2; B2, 1 h): 2 µg/mL
MIC after treatment at 100 °C (E. coli B2; B2, 1 h): 4 µg/mL
MIC after treatment at pH 2 (E. coli B2; B2, 1 h, pH 2): 4 µg/mL
MIC after treatment at pH 4 (E. coli B2; B2, 1 h, pH 4): 2 µg/mL
MIC after treatment at pH 6 (E. coli B2; B2, 1 h, pH 6): 2 µg/mL
MIC after treatment at pH 8 (E. coli B2; B2, 1 h, pH 8): 2 µg/mL
MIC after treatment at pH 10 (E. coli B2; B2, 1 h, pH 10): 2 µg/mL
MIC after treatment at pH 12 (E. coli B2; B2, 1 h, pH 12): 2 µg/mL
MIC (MRSA 1530): 16 µg/mL
MIC (MRSA T144 [3]): 8 µg/mL
MIC (E. coli B3-1 (tet(X4))): 2 µg/mL
MIC [4]: 16 µg/mL
MIC [5]: 32 µg/mL
MIC (E. coli C3 (blaNDM-1)): 4 µg/mL
MIC (E. coli G92 (mcr-1)): 2 µg/mL
MIC (S. aureus ATCC 29213): 4 µg/mL
MIC (E. coli ATCC 25922): 8 µg/mL
MIC (P. aeruginosa PA14): 64 µg/mL
MIC (E. coli G6 (blaNDM-5)): 4 µg/mL
MIC [6]: 4 µg/mL
MIC [7]: 4 µg/mL
MIC (S. aureus G16 (RIF^R)): 8 µg/mL
MIC [8]: 4 µg/mL
MIC (A. baumannii ATCC 19609): 4 µg/mL
MIC (E. coli 1F28 (tet(X4))): 16 µg/mL
MIC (E. coli CP131 (mcr-3)): 2 µg/mL
